The structures appear in SMILES notation.

Test [1] is described as follows: Inhibition of bovine aortic PDE4 using cAMP as substrate in presence of cGMP. Details: species or system Bos taurus.
Test [2] is filed under the species Bos taurus. The experiment in a line: Inhibition of bovine aortic PDE1 using calmodulin activated cGMP as substrate at 10 uM.
The subject of another test is Endothelial cell. The experiment in a line: Inhibition of bovine aortic endothelial cells PDE2 using cAMP as substrate at 10 uM in presence of cGMP. Format: cell-based. Particulars: Bos taurus.
Test [3] deals with cGMP-specific 3',5'-cyclic phosphodiesterase (Bos taurus) (UniProt Q28156). The test is described as follows: Inhibition of bovine aortic PDE5 using cGMP as substrate at 10 uM in presence of EGTA.
The species entered for test [4] is Bos taurus. The experiment in a line: Inhibition of bovine aortic PDE3 using cAMP as substrate at 10 uM in presence of rolipram.
The species named for test [5] is Bos taurus. The test is described as follows: Ratio of tofisopam IC50 to compound IC50 for bovine aortic PDE4 using cAMP as substrate in presence of cGMP.
A short description of test [6]: Competitive inhibition of bovine aortic PDE4 using cAMP as substrate by Lineweaver-Burk plot analysis. Details: species or system Bos taurus.
A short description of test [7]: Inhibition of bovine aortic endothelial cells PDE2 using cAMP as substrate in presence of cGMP. Conditions: endothelial cell. Format: cell-based, Bos taurus.
For test [8], the target named is cGMP-specific 3',5'-cyclic phosphodiesterase (Bos taurus, UniProt Q28156). The test is described as follows: Inhibition of bovine aortic PDE5 using cGMP as substrate in presence of EGTA.
The nature of test [9]: Inhibition of bovine aortic PDE3 using cAMP as substrate in presence of rolipram. Details: species or system Bos taurus.
For test [10], the species on record is Bos taurus.
Description: Activity of bovine aortic PDE4

As for `CCOc1ccc(Cc2nccc3cc(OCC)c(OCC)cc23)cc1OCC` [ETHAVERINE], the IC50 in test [1] is 400 nM. The same measure, in the same setting: under `COc1cc2c(cc1OC)N(C)C(=O)CN=C2/C=C/c1ccccc1` stands 8400 nM. Same read-out and setting: under `CCOc1ccc(C(=O)c2ccc(Cl)c(Cl)c2)cc1OCC` stands 7900 nM. As to `CCOc1ccc(C2=NNC(=O)Cc3ccccc32)cc1OCC`, the half-maximal inhibitory concentration (IC50) in test [1] worked out at 190 nM. Further, the inhibition in the test listed under Bos taurus [2] turned out to be 3%; with Endothelial cell, 27%; in [3] it was 17%; in the test listed under Bos taurus [4], 12%. For the molecule `CCOc1cc2c(cc1OCC)N(C)C(=O)CN=C2c1ccccc1`, the IC50 in test [1] came out at 860 nM. Still for that read-out and setting: under `COc1cc2c(cc1OC)C(c1ccccc1)=NCC(=O)N2` stands over 20000 nM; under `COc1cc2c(cc1OC)C(c1ccc(Cl)cc1)=NNC(=O)C2`, 1500 nM; under `COc1cc2c(cc1OC)C(c1ccccc1)=NNC(=O)C2`, 7700 nM. Take `CCOc1cc2c(cc1OCC)C(CC)C(C)=NN=C2c1ccc(Cl)cc1` (stereo not drawn): the concentration for half-maximal inhibition (IC50) in test [1] worked out at 200 nM. The inhibition with Endothelial cell stood at 38%; in test [3], 39%; in the test listed under Bos taurus [4], 4%. On to `COc1cc2c(cc1OC)N(C)C(=O)CN=C2CCc1ccccc1`, for which the IC50 in test [1] is over 20000 nM. On the same count and under the same terms, with `COc1cc2c(cc1OC)N(C)C(=O)CN=C2c1ccc(Cl)cc1` the figure was over 20000 nM. Still for that read-out and setting: with `CCOc1cc2c(cc1OCC)C(c1ccccc1)=NCC(=O)N2` the figure was 950 nM. Take `CCOc1cc2c(cc1OCC)C(CC)C(C)=NN=C2c1cccc(Cl)c1` (stereo not drawn): the IC50 in test [1] was found to be 390 nM. The inhibition in the test with Endothelial cell came to 44%. On to `CCOc1cc2c(cc1OCC)C(c1cc3ccccc3s1)=NN(C)C(=O)C2`, for which the IC50 in [1] was found to be 87 nM. In the test filed under Bos taurus [5], the Ratio IC50 came out at 7. Turning to `COc1cc2c(cc1OC)N(C)C(=O)CN=C2c1cccc(Cl)c1`, the IC50 in [1] is over 20000 nM. On to `CCOc1cc2c(cc1OCC)C(c1cc3ccccc3s1)=NNC(=O)C2`, for which, in test [1], the IC50 was determined as 260 nM. For `CCOc1ccc(C(=O)c2ccc(N(C)Cc3ccccc3)cc2)cc1OCC`, the half-inhibitory concentration (IC50) in test [1] was found to be 2200 nM. Still for that read-out and setting: under `COc1cc2c(cc1OC)C(c1ccccc1)=NN(C)C(=O)C2` stands 5100 nM. As to `COc1cc2c(cc1OC)N(C)C(=O)CN=C2C#Cc1ccccc1`, in test [1], the 50% inhibitory concentration (IC50) came out at 1600 nM. The same measure, in the same setting: under `COc1cc2c(cc1OC)N(C)C(=O)CN=C2N1CCCCC1` stands over 20000 nM. With `CCOc1ccc(C(=O)c2ccccc2Cl)cc1OCC`, the IC50 in test [1] amounted to 1400 nM. Moreover, the inhibition turned out to be 21% in the test filed under Bos taurus [2], 46% in the test on Endothelial cell, 4% in [3] and 24% in the test filed under Bos taurus [4]. In [6], this molecule showed a Ki of 420 nM. Take `CCOc1ccc(C(=O)N2CCN(Cc3ccccc3)CC2)cc1OCC`: in [1], the IC50 is 2300 nM. Regarding `COc1ccc(Cc2nccc3cc(OC)c(OC)cc23)cc1OC` [PAPAVERINE], the IC50 in [1] was 1100 nM. On the same count and under the same terms, with `COc1cc2c(cc1OC)N(C)C(=O)CN=C2c1ccccc1` the figure was 18000 nM. On the same count and under the same terms, under `COc1cc2c(cc1OC)N(C)C(=O)CN=C2c1cc2ccccc2s1` stands 2300 nM. Still for that read-out and setting: with `CCOc1ccc(C(=O)c2cccc3ccccc23)cc1OCC` the figure was 4300 nM; with `COc1ccc(C(=O)N2CCCCC2)cc1OC`, 9600 nM.

`CCOc1cc2c(cc1OCC)C(c1ccccc1)=NNC(=O)C2`: the IC50 in test [1] turned out to be 800 nM. The inhibition in the test filed under Bos taurus [2] stood at 37%; in the test with Endothelial cell it was 5%; in test [3], 30%; in the test listed under Bos taurus [4] it was 30%. On to `CCOc1ccc(C(=O)c2ccccc2)cc1OCC`, for which, in [1], the IC50 was determined as 2900 nM. As to `CCOc1ccc(C(=O)c2ccc(Cl)cc2)cc1OCC`, the half-maximal inhibitory concentration (IC50) in [1] was over 20000 nM. For the molecule `COc1cc2c(cc1OC)C(c1cccc(Cl)c1)=NN=C(C)C2` [GIRISOPAM], the figures for the half-inhibitory concentration (IC50) in test [7], in test [1] and in test [8] were 4000 nM, 3200 nM and 12.5 µM, respectively. In the test listed under Bos taurus [4], the inhibition turned out to be 22%. Take `CCOc1ccc(C2=NN(C)C(=O)Cc3ccccc32)cc1OCC`: in [1], the IC50 was 140 nM. Also, in [6], the Ki is 66 nM. As for `CCOc1cc2c(cc1OCC)C(c1ccc(Cl)cc1)=NNC(=O)C2`, in [1], the IC50 came out at 800 nM.

As to `COc1cc2c(cc1OC)C(c1cccc(Cl)c1)=NNC(=O)C2`, in [1], the concentration for half-maximal inhibition (IC50) turned out to be 7700 nM.

`COc1cc2c(cc1OC)C(c1ccc3ccccc3c1)=NNC(=O)C2`: the 50% inhibitory concentration (IC50) in [1] turned out to be 1500 nM. On the same count and under the same terms, with `COc1cc2c(cc1OC)C(c1ccc(Cl)c(Cl)c1)=NNC(=O)C2` the figure was 300 nM. Turning to `CCC1C(C)=NN=C(c2ccc(OC)c(OC)c2)c2cc(OC)c(OC)cc21` (stereo not drawn) [TOFISOPAM], the IC50 in [7] was determined as 900 nM; in [1], 680 nM; in test [9] it was 5.9 µM.

On to `COc1cc2c(cc1OC)C(c1cc3ccccc3s1)=NNC(=O)C2`, for which the IC50 in [1] worked out at 1200 nM. Regarding `Nc1ncnc2c1ncn2[C@@H]1O[C@@H]2COP(=O)(O)O[C@H]2[C@H]1O`, in the test filed under Bos taurus [10], the Km stood at 0.71 µM. Turning to `CCOc1cc2c(cc1OCC)C(c1cccc(Cl)c1)=NNC(=O)C2`, the 50% inhibitory concentration (IC50) in [1] was found to be 1400 nM. Still for that read-out and setting: with `COc1cc2c(cc1OC)C(c1cc3ccccc3s1)=NN(C)C(=O)C2` the figure was 300 nM. Turning to `CCOc1ccc(C(=O)c2ccc3ccccc3c2)cc1OCC`, in test [1], the IC50 came out at 5000 nM. On the same count and under the same terms, with `CCOc1ccc(C(=O)N2CCN(c3ccccc3)CC2)cc1OCC` the figure was 17000 nM. On the same count and under the same terms, under `CCOc1ccc(C(=O)N2CCCCC2)cc1OCC` stands 3600 nM.

As usually defined, the IC50 is the midpoint of a concentration-inhibition curve. What is called inhibition is the relative decrease from the control value, in per cent. The Ki is the dissociation constant of the complex between target and ligand, obtained from inhibition or displacement. One may read the Km as the concentration of substrate that gives half-maximal velocity.

Source of the values: ChEMBL document CHEMBL1914375, “New PDE4 inhibitors based on pharmacophoric similarity between papaverine and tofisopam” (Bioorg Med Chem Lett, 2011).
